How the values were obtained:
[1] = target: T1, human B1R receptor (hB1R) (Homo sapiens, UniProt P46663); assay: FLIPR Ca2+ assay on human bradykinin 1 receptor (CHO K1 hB1R cells); type: cell-based; conditions: test substance 10 μM; CHO K1 cells with human B1R gene; agonist Lys-Des-Arg9-bradykinin 0.5 nM; compared to maximum achievable inhibition
T1 construct: host or cells: CHO K1 cells
T1 sequence (P46663 1-353): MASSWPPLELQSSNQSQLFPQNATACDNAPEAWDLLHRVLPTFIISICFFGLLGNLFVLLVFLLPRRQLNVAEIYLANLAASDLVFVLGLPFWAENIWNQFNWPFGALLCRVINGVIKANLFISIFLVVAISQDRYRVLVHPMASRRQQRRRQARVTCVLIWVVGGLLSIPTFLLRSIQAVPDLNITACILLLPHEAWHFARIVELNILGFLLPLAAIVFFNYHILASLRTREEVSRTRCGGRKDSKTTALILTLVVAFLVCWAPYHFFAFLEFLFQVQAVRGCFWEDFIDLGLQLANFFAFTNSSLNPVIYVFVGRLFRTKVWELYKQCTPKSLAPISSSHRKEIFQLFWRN
Outline: (§1)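 Values are percent inhibition of agonist-evoked Ca²⁺ influx, measured by Fluo-4 fluorescence peak in FLIPR relative to maximum achievable inhibition. Compound at 10 μM was preincubated 10 min on B1R-transfected CHO K1 cells before challenge with 0.5 nM Lys-Des-Arg9-bradykinin (human) or 100 nM Des-Arg9-bradykinin (rat).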

[2] = target: T2, B1R receptor of rats (rB1R) (Rattus norvegicus, UniProt P97583); assay: FLIPR Ca2+ assay on rat bradykinin 1 receptor (CHO K1 rB1R cells); type: cell-based; conditions: test substance 10 μM; CHO K1 cells with B1R gene of rats; agonist Des-Arg9-bradykinin 100 nM; compared to maximum achievable inhibition
T2 construct: host or cells: CHO K1 cells
T2 sequence (P97583 1-337): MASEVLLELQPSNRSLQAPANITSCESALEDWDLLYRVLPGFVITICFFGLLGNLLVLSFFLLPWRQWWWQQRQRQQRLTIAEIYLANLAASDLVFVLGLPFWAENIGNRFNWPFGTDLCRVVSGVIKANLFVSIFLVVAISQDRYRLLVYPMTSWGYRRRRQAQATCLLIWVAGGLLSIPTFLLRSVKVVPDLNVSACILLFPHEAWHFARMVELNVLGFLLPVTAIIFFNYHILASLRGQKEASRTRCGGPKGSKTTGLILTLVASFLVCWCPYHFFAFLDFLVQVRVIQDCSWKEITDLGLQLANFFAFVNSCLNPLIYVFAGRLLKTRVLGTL
Outline: as §1

inhibition at 10 µM [1] [%] | inhibition at 10 µM [2] [%] | SMILES
43 | 93 | COc1cc(C)c(S(=O)(=O)N(C)CCOCC(=O)N2CCn3cnnc3C2)c(C)c1 [Example 3, N-(2-(2-(5,6-dihydro-[1,2,4]triazolo[4,3-a]pyrazin-7(8H)-yl)-2-oxoethoxy)ethyl)-4-methoxy-N,2,6-trimethylbenzenesulfonamide]
99 | 102 | COc1cc(C)c(S(=O)(=O)N(CCOCC(=O)N2CCn3c(CN4CCCC4)ccc3C2c2ccccc2)Cc2ccccc2)c(C)c1 (stereo not drawn) [Example 127, N-benzyl-4-methoxy-2,6-dimethyl-N-(2-(2-oxo-2-(1-phenyl-6-(pyrrolidin-1-ylmethyl)-3,4-dihydropyrrolo[1,2-a]pyrazin-2(1H)-yl)ethoxy)ethyl)benzene-sulfonamide]
101 | 102 | COc1cc(C)c(S(=O)(=O)N(CCOCC(=O)N2CCn3c(CN(C)C)ccc3C2c2cccs2)CC(C)C)c(C)c1C (stereo not drawn) [Example 98, N-(2-(2-(6-((dimethylamino)methyl)-1-(thiophen-2-yl)-3,4-dihydropyrrolo[1,2-a]pyrazin-2(1H)-yl)-2-oxoethoxy)ethyl)-N-isobutyl-4-methoxy-2,3,6-trimethyl-benzenesulfonamide]
41 | 96 | COc1cc(C)c(S(=O)(=O)N(CCOCC(=O)N2CCn3ccnc3C2)Cc2ccccc2)c(C)c1 [Example 46, N-benzyl-N-(2-(2-(5,6-dihydroimidazo[1,2-a]pyrazin-7(8H)-yl)-2-oxoethoxy)ethyl)-4-methoxy-2,6-dimethylbenzenesulfonamide]
100 | 98 | COc1cc(C)c(S(=O)(=O)N(C)CCOCC(=O)N2CCn3cccc3C2C(C)(C)C)c(C)c1 (stereo not drawn) [Example 52, N-(2-(2-(1-tert-butyl-3,4-dihydropyrrolo[1,2-a]pyrazin-2(1H)-yl)-2-oxoethoxy)ethyl)-4-methoxy-N,2,6-trimethylbenzenesulfonamide]
95 | 95 | Cc1cc(C)c(S(=O)(=O)N(C)CCOCC(=O)N2CCn3cccc3C2c2ccc(F)c(F)c2)c(C)c1 (stereo not drawn) [Example 71, N-(2-(2-(1-(3,4-difluorophenyl)-3,4-dihydropyrrolo[1,2-a]pyrazin-2(1H)-yl)-2-oxoethoxy)ethyl)-N,2,4,6-tetramethylbenzenesulfonamide]
100 | 98 | COc1cc(C)c(S(=O)(=O)N(C)CCOCC(=O)N2CCn3cccc3C2c2cccs2)c(C)c1 (stereo not drawn) [Example 60, 4-Methoxy-N,2,6-trimethyl-N-(2-(2-oxo-2-(1-(thiophen-2-yl)-3,4-dihydropyrrolo[1,2-a]pyrazin-2(1H)-yl)ethoxy)ethyl)benzenesulfonamide]
103 | 101 | Cc1cc(C)c(S(=O)(=O)N(C)CCOCC(=O)N2CCn3c(CN4CCCCC4)ccc3C2c2ccccc2)c(C)c1 (stereo not drawn) [Example 141, N,2,4,6-tetramethyl-N-(2-(2-oxo-2-(1-phenyl-6-(piperidin-1-ylmethyl)-3,4-dihydropyrrolo[1,2-a]pyrazin-2(1H)-yl)ethoxy)ethyl)benzenesulfonamide]
99 | 98 | COc1cc(C)c(S(=O)(=O)N(C)CCOCC(=O)N2CCn3c(CCc4cccnc4)ccc3C2)c(C)c1 [Example 170, 4-Methoxy-N,2,6-trimethyl-N-(2-(2-oxo-2-(6-(2-(pyridin-3-yl)ethyl)-3,4-dihydropyrrolo[1,2-a]pyrazin-2(1H)-yl)ethoxy)ethyl)benzenesulfonamide]
101 | 101 | COc1c(C)cc(S(=O)(=O)N(C)CCOCC(=O)N2CCn3c(CN(C)C)ccc3C2c2cccs2)c(C)c1C (stereo not drawn) [Example 112, N-(2-(2-(6-((dimethylamino)methyl)-1-(thiophen-2-yl)-3,4-dihydropyrrolo[1,2-a]pyrazin-2(1H)-yl)-2-oxoethoxy)ethyl)-4-methoxy-N,2,3,5-tetramethylbenzene-sulfonamide]
97 | 43 | COc1cccc(C2c3cccn3CCN2C(=O)COCCN(C)S(=O)(=O)c2cc(C)c(OC)c(C)c2C)c1 (stereo not drawn) [Example 38, 4-methoxy-N-(2-(2-(1-(3-methoxyphenyl)-3,4-dihydropyrrolo[1,2-a]pyrazin-2(1H)-yl)-2-oxoethoxy)ethyl)-N,2,3,5-tetramethylbenzenesulfonamide]
101 | 101 | CCC1c2ccc(CN(C)C)n2CCN1C(=O)COCCN(Cc1ccccc1)S(=O)(=O)c1c(C)cc(OC)cc1C (stereo not drawn) [Example 131, N-benzyl-N-(2-(2-(6-((dimethylamino)methyl)-1-ethyl-3,4-dihydropyrrolo[1,2-a]pyrazin-2(1H)-yl)-2-oxoethoxy)ethyl)-4-methoxy-2,6-dimethylbenzene-sulfonamide]

The remaining lines, values behind:

SMILES | inhibition at 10 µM [1] [%] | inhibition at 10 µM [2] [%]
COc1cc(C)c(S(=O)(=O)N(CCOCC(=O)N2CCn3cccc3C2C(C)C)CC(C)C)c(C)c1C (stereo not drawn) [Example 102, N-isobutyl-N-(2-(2-(1-isopropyl-3,4-dihydropyrrolo[1,2-a]pyrazin-2(1H)-yl)-2-oxoethoxy)ethyl)-4-methoxy-2,3,6-trimethylbenzenesulfonamide] | 96 | 102
COc1cc(C)c(S(=O)(=O)N(CCOCC(=O)N2CCn3c(CN4CCCC4)ccc3C2c2ccccc2)CC(C)C)c(C)c1C (stereo not drawn) [Example 92, N-isobutyl-4-methoxy-2,3,6-trimethyl-N-(2-(2-oxo-2-(1-phenyl-6-(pyrrolidin-1-ylmethyl)-3,4-dihydropyrrolo[1,2-a]pyrazin-2(1H)-yl)ethoxy)ethyl)benzene-sulfonamide] | 102 | 102
COc1c(C)cc(S(=O)(=O)N(C)CCOCC(=O)N2CCn3c(CN4CCOCC4)ccc3C2c2ccccc2)c(C)c1C (stereo not drawn) [Example 108, 4-methoxy-N,2,3,5-tetramethyl-N-(2-(2-(6-(morpholinomethyl)-1-phenyl-3,4-dihydropyrrolo[1,2-a]pyrazin-2(1H)-yl)-2-oxoethoxy)ethyl)benzenesulfonamide] | 102 | 102
COc1cc(C)c(S(=O)(=O)N(CCOCC(=O)N2CCn3cccc3C2c2cccc(F)c2)CC(C)C)c(C)c1C (stereo not drawn) [Example 24, N-(2-(2-(1-(3-fluorophenyl)-3,4-dihydropyrrolo[1,2-a]pyrazin-2(1H)-yl)-2-oxoethoxy)ethyl)-N-isobutyl-4-methoxy-2,3,6-trimethylbenzenesulfonamide] | 32 | 99
Cc1cc(C)c(S(=O)(=O)N(C)CCOCC(=O)N2CCn3cccc3C2c2ccc(C(C)(C)C)cc2)c(C)c1 (stereo not drawn) [Example 78, N-(2-(2-(1-(4-tert-butylphenyl)-3,4-dihydropyrrolo[1,2-a]pyrazin-2(1H)-yl)-2-oxoethoxy)ethyl)-N,2,4,6-tetramethylbenzenesulfonamide] | 32 | 77
COc1cc(C)c(S(=O)(=O)N(CCOCC(=O)N2CCn3ccnc3C2)Cc2ccccc2)c(C)c1C [Example 43, N-benzyl-N-(2-(2-(5,6-dihydroimidazo[1,2-a]pyrazin-7(8H)-yl)-2-oxoethoxy)ethyl)-4-methoxy-2,3,6-trimethylbenzenesulfonamide] | 33 | 73
COc1cc(C)c(S(=O)(=O)N(C)CCOCC(=O)N2CCn3c(CN4CCOCC4)ccc3C2c2ccccc2)c(C)c1C (stereo not drawn) [Example 150, 4-methoxy-N,2,3,6-tetramethyl-N-(2-(2-(6-(morpholinomethyl)-1-phenyl-3,4-dihydropyrrolo[1,2-a]pyrazin-2(1H)-yl)-2-oxoethoxy)ethyl)benzenesulfonamide] | 103 | 103
COc1c(C)cc(S(=O)(=O)N(C)CCOCC(=O)N2CCn3c(CN4CCCC4)ccc3C2c2ccccc2)c(C)c1C (stereo not drawn) [Example 106, 4-methoxy-N,2,3,5-tetramethyl-N-(2-(2-oxo-2-(1-phenyl-6-(pyrrolidin-1-ylmethyl)-3,4-dihydropyrrolo[1,2-a]pyrazin-2(1H)-yl)ethoxy)ethyl)benzene-sulfonamide] | 99 | 101
COc1cc(C)c(S(=O)(=O)N(C)CCOCC(=O)N2CCn3cccc3C2c2ccc(C(C)(C)C)cc2)c(C)c1 (stereo not drawn) [Example 64, N-(2-(2-(1-(4-tert-butylphenyl)-3,4-dihydropyrrolo[1,2-a]pyrazin-2(1H)-yl)-2-oxoethoxy)ethyl)-4-methoxy-N,2,6-trimethylbenzenesulfonamide] | 100 | 99
